Patent publication US20220241249A1, “PHARMACEUTICAL COMPOSITION AND KIT CONTAINING NOVEL PENAM DERIVATIVE OR SALT THEREOF AND ONE OR MORE COMPOUNDS SELECTED FROM beta-LACTAMASE INHIBITORY COMPOUND AND ANTIBACTERIAL COMPOUND OR SALTS THEREOF” (priority 2019, published 2022)

How the values were obtained:
[1] = test system: Escherichia coli TK-3113 strain producing IMP-8 (strain D); experiment: MIC of test compound alone or with β-lactamase inhibitor at 4 μg/mL; type: cell-based; details: Escherichia coli
Method in brief: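 Broth microdilution MIC of the test compound, run alone and with a β-lactamase inhibitor fixed at 4 μg/mL. Strains were IMP-8-producing E. coli TK-3113 and other β-lactamase producers, including K. pneumoniae Y-1069 carrying OXA-48 and CTX-M-15.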

[2] = test system: Escherichia coli TK-1765 strain producing CMY-2 (strain E); experiment: as above; type: cell-based; details: Escherichia coli
Method: (§1) By using a broth microdilution method, the combinational effect of a test compound and a β-lactamase inhibitor was evaluated.
(§2) The evaluation test for antibacterial activity was performed in the same manner as in Test Example 1.
Escherichia coli TK-1765 strain producing CMY-2 (hereinafter, called strain E)

[3] = test system: Klebsiella pneumoniae ATCC13883 strain (Klebsiella pneumoniae A); experiment: Combinational effect of test compound and antibacterial compound, checkerboard FIC index; type: cell-based
Method: (§3) By using a broth microdilution method, the combinational effect of antibacterial activity of a test compound and an antibacterial compound was evaluated.
(§4) As bacterial strains, an Escherichia coli ATCC25922 strain (hereinafter, called Escherichia coli A), a Klebsiella pneumoniae ATCC13883 strain (hereinafter, called Klebsiella pneumoniae A), and a Pseudomonas aeruginosa ATCC27853 strain (hereinafter, called Pseudomonas aeruginosa A) were used.
(§5) The minimum inhibitory concentration (hereinafter, called MIC) was measured according to the Clinical and Laboratory Standards Institute (CLSI) standard method by using the following broth microdilution method.
(§6) The bacterial cells that had been cultured overnight on a Mueller Hinton agar medium were scraped off, suspended at a density equivalent to 0.5 McFarland standard. The obtained suspension was diluted at 10 fold, thereby obtaining an inoculum. Cation-adjusted Mueller Hinton media containing only a test compound, containing only an antibacterial compound, or containing a test compound and an antibacterial compound were inoculated with 0.005 mL of the inoculum, and the cells were cultured at 35° C. for 18 to 20 hours. The minimum drug concentration at which the growth of bacteria was not visually observed was defined as MIC (μg/mL).
(§7) The FIC Index is the minimum value calculated by the following formula.
(§8) FIC Index=(MIC value obtained in a case where test compound is used in combination/MIC value obtained in a case where test compound is used alone)+(MIC value obtained in a case where antibacterial compound is used in combination/MIC value obtained in a case where antibacterial compound is used alone)
(§9) In a case where the FIC Index was 0.5 or less, it was decided that the use of two drugs in combination brings about a synergistic effect.
(§10) In a case where the FIC Index was more than 0.5 and 1 or less, it was decided that the use of two drugs in combination brings about an additive effect. (Diagnostic Microbiology and Infectious Disease, 2004, Vol. 49, p. 197)

[4] = test system: Pseudomonas aeruginosa ATCC27853 strain (Pseudomonas aeruginosa A); experiment: as above; type: cell-based; details: for FIC index: Pseudomonas aeruginosa A, checkerboard
Method: as §3, §4, §5, §6, §7, §8, §9, §10

[5] = test system: Klebsiella pneumoniae Y-1133 strain producing NDM-1, OXA-48, and CTX-M-15 (strain C); experiment: MIC of test compound alone or with β-lactamase inhibitor at 4 μg/mL; type: cell-based; details: Klebsiella pneumoniae
Method in brief: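 Broth microdilution MIC against K. pneumoniae Y-1133 (NDM-1, OXA-48, CTX-M-15), test compound alone or combined with a β-lactamase inhibitor at 4 μg/mL.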

[6] = test system: Klebsiella pneumoniae Y-1020 strain producing KPC-3 and SHV-12 (strain B); experiment: as above; type: cell-based; details: for MIC: Klebsiella pneumoniae, Strain B
Method in brief: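 Broth microdilution MIC of test compound tested alone or combined with a β-lactamase inhibitor fixed at 4 μg/mL, against the KPC-3/SHV-12-producing strain.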

[7] = test system: multidrug-resistant Pseudomonas aeruginosa strain (S-2838 strain); experiment: Test for protection against systemic infection in mouse with multidrug-resistant Pseudomonas aeruginosa; type: in vivo; details: sc, 72 h, read-out: survival rate 3 days after the inoculation with bacteria
Method: As mice, ICR male SPF mice (4 weeks old: 10 mice per group) were used. Clinically isolated multidrug-resistant Pseudomonas aeruginosa strain (S-2838 strain) cultured overnight on a Mueller-Hinton agar plate at 37° C. was cultured on a cation-adjusted Mueller Hinton medium for 5 hours, and then diluted 20-fold with a 10% mucin/phosphate buffer, thereby preparing an inoculum. An infection was induced by intraperitoneally inoculating the mice with the inoculum at 0.5 mL (about 10^6 CFU/mouse). Each test compound was dissolved in physiological saline, and 1 hour after the infection, the compound was subcutaneously administered once to the mice at 40 mg/kg. The control group was administered with the same amount of physiological saline used as a vehicle. The number of surviving mice was recorded 3 days after the infection.
A test for protection against systemic infection in a mouse with multidrug-resistant Pseudomonas aeruginosa was performed in the same manner as in Test Example 2.

[8] = test system: Escherichia coli TK-1747 strain producing CTX-M-15 (strain A); experiment: MIC of test compound alone or with β-lactamase inhibitor at 4 μg/mL; type: cell-based; details: Escherichia coli
Method: as §1, §2
Escherichia coli TK-1747 strain producing CTX-M-15 (hereinafter, called strain A),

[9] = test compound alone (β-lactamase inhibitor N/A)

## CC(C)(O/N=C(\C(=O)NC1C(=O)N2C[C@@](C(=O)O)(N3CCN(NC(=O)C(=O)c4ccc(O)c(O)c4Cl)C(=O)C3=O)S[C@H]12)c1csc(N)n1)C(=O)O (stereo partly drawn) [Example 126, (3R,5R,6R)-6-((Z)-2-(2-aminothiazol-4-yl)-2-(((2-carboxypropan-2-yl)oxy)imino)aceta-mido)-3-(4-(2-(2-chloro-3,4-dihydroxy-phenyl)-2-oxoaceta-mido)-2,3-dioxopipera-zin-1-yl)-7-oxo-4-thia-1-azabicyclo[3.2.0]-heptane-3-carboxylic acid]
[1]; NAC added at 4 μg/mL
  MIC: 0.03 µg/mL
[1]; VAB added at 4 μg/mL
  MIC: 2 µg/mL
[1]; ZID added at 4 μg/mL
  MIC: 0.03 µg/mL
[1]; [9]
  MIC: 4 µg/mL
[2]; [9]
  MIC: 2 µg/mL
[2]; with AVI at 4 μg/mL
  MIC: 0.25 µg/mL
[2]; with TAZ at 4 μg/mL
  MIC: 1 µg/mL
[2]; with VAB at 4 μg/mL
  MIC: 0.5 µg/mL
[3]; in combination with AMK
  FIC index: 0.75
[3]; in combination with CAZ
  FIC index: 0.625
[3]; in combination with IPM
  FIC index: 0.375
[3]; in combination with LVFX
  FIC index: 0.75
[3]; in combination with MPC
  FIC index: 0.188
[3]; in combination with PIPC
  FIC index: <0.5
[3]; in combination with PL-B
  FIC index: 0.625
[3]; in combination with RFP
  FIC index: 0.563
[3]; in combination with VCM
  FIC index: <0.625
[4]; in combination with AMK
  FIC index: 0.5
[4]; in combination with CAZ
  FIC index: 0.563
[4]; in combination with IPM
  FIC index: 0.188
[4]; in combination with LVFX
  FIC index: 0.188
[4]; in combination with PIPC
  FIC index: 0.75
[4]; in combination with PL-B
  FIC index: 0.188
[4]; in combination with RFP
  FIC index: 0.375
[4]; in combination with TC
  FIC index: 0.25
[4]; in combination with VCM
  FIC index: 0.266
[4]; main strains of Gram-negative bacteria, summary of Tables 40 to 42
  combinational effect with other antibacterial compounds: additive or synergistic effect
[5]; AVI added at 4 μg/mL
  MIC: 0.5 µg/mL
[5]; NAC added at 4 μg/mL
  MIC: 0.03 µg/mL
[5]; ZID added at 4 μg/mL
  MIC: < 0.015 µg/mL
[5]; [9]
  MIC: 1 µg/mL
[6]; AVI added at 4 μg/mL
  MIC: 1 µg/mL
[6]; NAC added at 4 μg/mL
  MIC: 0.12 µg/mL
[6]; ZID added at 4 μg/mL
  MIC: 0.03 µg/mL
[6]; [9]
  MIC: 4 µg/mL
[6]; for all the bacterial strains (strains A to E), summary of Tables 43 to 47
  antibacterial activity in combination with a β-lactamase inhibitor versus without: higher antibacterial activity
[7]
  responders at 40 mg/kg: ≥ 90%
[8]; AVI added at 4 μg/mL
  MIC: 0.03 µg/mL
[8]; CVA added at 4 μg/mL
  MIC: 0.03 µg/mL
[8]; NAC added at 4 μg/mL
  MIC: 0.03 µg/mL
[8]; SBT added at 4 μg/mL
  MIC: 0.06 µg/mL
[8]; TAZ added at 4 μg/mL
  MIC: 0.06 µg/mL
[8]; ZID added at 4 μg/mL
  MIC: < 0.015 µg/mL
[8]; [9]
  MIC: 0.12 µg/mL
